Results published in ChEMBL document CHEMBL1201862, “PubChem BioAssay data set” (2004).
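Step 1: Grow cells in 96-well plates. Step 2: Expose to compound for 48 hours at 5 concentrations. Step 3: Interpolate endpoints linearly; if unreached, use highest concentration. GI50 marks 50% less growth.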 The source made the active and inactive calls. No stated cut-off is given here; in the data, active = GI50 up to about 1.1 µM and inactive = higher.

Columns and labels:
Test in all cases: NCI anticancer screen, dose series, 48 h
[1] = test system: OVCAR-8
[2] = test system: NCI-H23
[3] = test system: EKVX
[4] = test system: OVCAR-3
[5] = test system: HOP-92
[6] = test system: U-251
[7] = test system: SF-539
[8] = test system: NCI-H522
[9] = test system: DMS-114
[10] = test system: HCT-15
[11] = test system: SK-MEL-28
[12] = test system: DMS-273
[13] = test system: M19-MEL
[14] = test system: SNB-75
[15] = test system: SNB-19

Structure (SMILES)	GI50 [1]	GI50 [2]	GI50 [3]	GI50 [4]	GI50 [5]	GI50 [6]	GI50 [7]	GI50 [8]	GI50 [9]	GI50 [10] [µM]	GI50 [11]	GI50 [12]	GI50 [13]	GI50 [14]	GI50 [15]
O=C1C(Cl)=C(Cl)C(=O)N1c1ccccc1Cl	> 100 µM (inactive)	> 85.9 µM (inactive)	> 100 µM (inactive)	99.3 µM (inactive)	> 36.7 µM (inactive)	> 100 µM (inactive)	> 100 µM (inactive)	8.24 µM (inactive)	> 95.1 µM (inactive)	> 53.6	> 100 µM (inactive)	> 100 µM (inactive)	> 100 µM (inactive)	> 100 µM (inactive)	> 100 µM (inactive)
ON/N=C/c1cc2c(cc1Br)OCO2	> 386 µM (inactive)	> 386 µM (inactive)	176 µM (inactive)	295 µM (inactive)	144 µM (inactive)	329 µM (inactive)	> 386 µM (inactive)	230 µM (inactive)	251 µM (inactive)	–	> 386 µM (inactive)	> 386 µM (inactive)	> 386 µM (inactive)	–	> 386 µM (inactive)
O=[N+]([O-])c1cc(/C=N\NS(=O)(=O)c2ccc(Cl)cc2)c(O)c([N+](=O)[O-])c1	23 µM (inactive)	22.2 µM (inactive)	> 100 µM (inactive)	24.4 µM (inactive)	36.3 µM (inactive)	24 µM (inactive)	23.3 µM (inactive)	24.5 µM (inactive)	31.9 µM (inactive)	21.4	93.3 µM (inactive)	26.5 µM (inactive)	48.3 µM (inactive)	24.9 µM (inactive)	20.9 µM (inactive)
C[C@@]1(CBr)C[C@@](C)(/C=C/Cl)[C@@H](Cl)C[C@H]1Cl	13.9 µM (inactive)	13.3 µM (inactive)	18.1 µM (inactive)	10.8 µM (inactive)	13.6 µM (inactive)	14.2 µM (inactive)	14.6 µM (inactive)	3.31 µM (inactive)	12.7 µM (inactive)	–	17.5 µM (inactive)	10.8 µM (inactive)	13.1 µM (inactive)	16.1 µM (inactive)	13.5 µM (inactive)
O=C(C[n+]1ccccc1)NNC(=O)/C(=C/c1ccc2c(c1)OCO2)NC(=O)c1ccccc1	30 µM (inactive)	> 79.1 µM (inactive)	> 100 µM (inactive)	29.9 µM (inactive)	> 100 µM (inactive)	28.2 µM (inactive)	29.4 µM (inactive)	29 µM (inactive)	25.5 µM (inactive)	28.6	> 100 µM (inactive)	28.3 µM (inactive)	41.7 µM (inactive)	36.7 µM (inactive)	68.9 µM (inactive)
COc1cc2c(cc1OC)C1(c3ccc(Cl)cc3)ON=C(c3ccccc3)N1CS2 (centres undefined)	–	> 100 µM (inactive)	> 100 µM (inactive)	> 100 µM (inactive)	44.8 µM (inactive)	> 100 µM (inactive)	> 100 µM (inactive)	58.9 µM (inactive)	> 100 µM (inactive)	> 100	> 100 µM (inactive)	> 100 µM (inactive)	> 100 µM (inactive)	> 100 µM (inactive)	> 100 µM (inactive)
Cc1nnc(N/N=C2\C(=O)Nc3ccccc32)n1N	> 100 µM (inactive)	> 100 µM (inactive)	> 100 µM (inactive)	> 100 µM (inactive)	–	> 100 µM (inactive)	> 100 µM (inactive)	> 100 µM (inactive)	> 100 µM (inactive)	> 100	> 100 µM (inactive)	> 100 µM (inactive)	> 100 µM (inactive)	> 100 µM (inactive)	> 100 µM (inactive)
COc1ccccc1/C=C1\C(=O)N(C(=O)c2ccc(NC(C)=O)cc2)N=C1C	> 100 µM (inactive)	> 100 µM (inactive)	> 100 µM (inactive)	> 100 µM (inactive)	–	> 100 µM (inactive)	> 100 µM (inactive)	> 100 µM (inactive)	> 100 µM (inactive)	> 100	> 100 µM (inactive)	> 100 µM (inactive)	> 100 µM (inactive)	> 100 µM (inactive)	> 100 µM (inactive)
CC12CC3CC(C)(C1)CC(N=[N+]=[N-])(C3)C2	> 100 µM (inactive)	> 100 µM (inactive)	> 100 µM (inactive)	> 100 µM (inactive)	> 100 µM (inactive)	> 100 µM (inactive)	> 100 µM (inactive)	> 100 µM (inactive)	> 100 µM (inactive)	–	> 100 µM (inactive)	> 100 µM (inactive)	> 100 µM (inactive)	> 100 µM (inactive)	> 100 µM (inactive)
CC(C)(C)c1cc(CCCCCCCC2(CCCCCCCc3cc(C(C)(C)C)cc(C(C)(C)C)c3)OC(COCCOCCCCCC#N)C(COCCOCCCCCC#N)O2)cc(C(C)(C)C)c1 (centres undefined)	> 100 µM (inactive)	> 100 µM (inactive)	> 100 µM (inactive)	> 100 µM (inactive)	> 100 µM (inactive)	> 100 µM (inactive)	–	> 100 µM (inactive)	> 100 µM (inactive)	> 100	> 100 µM (inactive)	> 100 µM (inactive)	> 100 µM (inactive)	> 100 µM (inactive)	> 100 µM (inactive)
CN1C(c2ccccc2)CC(=NO)CC1c1ccccc1 (centres undefined)	47.4 µM (inactive)	89.1 µM (inactive)	> 100 µM (inactive)	39.9 µM (inactive)	92.7 µM (inactive)	67.6 µM (inactive)	41.2 µM (inactive)	25.6 µM (inactive)	25.7 µM (inactive)	37.9	91.2 µM (inactive)	28 µM (inactive)	37.5 µM (inactive)	59.7 µM (inactive)	> 100 µM (inactive)
O=c1oc2cc(O)ccc2c2[nH]c3cc(O)ccc3c12	27.2 µM (inactive)	24.5 µM (inactive)	26.5 µM (inactive)	20.7 µM (inactive)	32.1 µM (inactive)	21.4 µM (inactive)	18.9 µM (inactive)	11.7 µM (inactive)	21.1 µM (inactive)	27	31.7 µM (inactive)	21.6 µM (inactive)	27.9 µM (inactive)	16.3 µM (inactive)	18.6 µM (inactive)
C#CC1(O)CCC2[C@@H]3CCc4cc(Oc5nc(F)nc(-c6c7ccccc7c(SCC)n6CCC)n5)ccc4C3CC[C@@]21C (some centres undefined)	> 100 µM (inactive)	25 µM (inactive)	59.6 µM (inactive)	> 100 µM (inactive)	> 100 µM (inactive)	54.6 µM (inactive)	58.9 µM (inactive)	> 10 µM (inactive)	31.3 µM (inactive)	> 100	50.7 µM (inactive)	> 100 µM (inactive)	> 100 µM (inactive)	–	–
C[N+](C)(C)CC1CCCC(C[N+](C)(C)C)C1O (centres undefined)	> 100 µM (inactive)	> 100 µM (inactive)	> 100 µM (inactive)	> 100 µM (inactive)	> 100 µM (inactive)	> 100 µM (inactive)	> 100 µM (inactive)	> 100 µM (inactive)	> 100 µM (inactive)	> 100	> 100 µM (inactive)	> 100 µM (inactive)	> 100 µM (inactive)	> 100 µM (inactive)	–
